Measurements taken from patent US20190307771A1, “METHODS AND COMPOSITIONS FOR THE TREATMENT OF CANCER AND METABOLIC DISEASES” (THE REGENTS OF THE UNIVERSITY OF CALIFORNIA, priority 2016, published 2019).
Entries after “also recorded” stand apart in the source; their conditions may differ.

Tests used:
[1] = tested on: NUR77 and RARβ; experiment: Immunoprecipitation/Western blot: protein acetylation of NUR77 and RARβ; format: cell-based; conditions: HCT116 cells; IP with anti-NUR77 or anti-RARβ, anti-acetyl lysine blot
Excerpt: FIG. 12A depicts the expression levels of proteins that were extracted from HCT116 cells and immunoprecipitated by anti-NUR77 and RARβ antibodies or IgG, followed by Western blot using an anti-acetyl lysine antibody. […] The mRNA levels of NUR77 target genes BRE as well as CCND2 and RARβ target genes RARβ and CYP26A1 in HCT116 cells are shown in FIG. 12C.
(§1) NUR77 and RARβ acetylation status was also studied because protein acetylation alters nuclear receptor activity^37. […] To study the effect of RA/butyrate in modulating NUR77 and RARβ transcriptional activity, ChIP-qPCR and RT-PCR were performed to determine receptor binding to transcriptional regulatory regions and mRNA levels of downstream targets, respectively.
(§2) Western blot and immunoprecipitation were performed as described previously^22. Specific antibodies used included anti-NUR77, RARβ, SIRT1, β-actin, and IgG (Santa Cruz Biotechnology, Santa Cruz, Calif.), phospho-JNK1/2, total JNK1/2, cleaved caspase3, HDAC1 and HDAC4 (Cell Signaling Technology, Beverly, Mass.), and CCNA2 (Novus Biologicals, Littleton, Colo.). To detect protein acetylation of NUR77 and RARβ, cell lysates (500 μg) were incubated with anti-NUR77, RARβ, or IgG antibody (1 μg), precipitated by adding Dynabeads (30 μl, Life Technologies, Carlsbad, Calif.), and probed with anti-Acetyl-lysine antibody (Cell Signaling Technology, Beverly, Mass.). To study the interaction between RARβ and NUR77, whole-cell lysates were precipitated with anti-RARβ or NUR77 antibody followed by Western blot using anti-NUR77 or RARβ antibody.

[2] = tested on: HCT116-generated tumors; experiment: Mouse xenograft tumor model; format: in vivo, Athymic nude mice; conditions: adenoviral miR-22 intratumorally
Method: Athymic nude mice (female, 6 weeks old, Jackson Laboratory) were subcutaneously injected by HCT116 cells (1×10^6) in the flank region. When tumor size reached […] of cross-sectional area, a combination of RA plus butyrate or adenoviral-expressing miR-22 (Ad-miR-22) was administered. For RA plus butyrate treatment, mice received RA (2.5 μg/g body weight) and butyrate (1.2 mg/g body weight) intraperitoneally (IP) 5 times a week for 2 weeks. For Ad-miR-22 treatment, mice received Ad-miR-22 (1×10^9 Pfu) intratumorally (IT) twice a week for 2 weeks. Control groups received 1% DMSO in PBS and adenovirus scramble, respectively. Tumor dimensions were measured and tumor volume was calculated using V (volume)=W (width)^2×L (length)/2. All experimental protocols were approved by the University of California Davis Animal Care and Use Committee.

[3] = tested on: CYCLIN A2, HDAC1, HDAC4, SIRT1; experiment: Protein levels in Huh7 liver cancer cells; conditions: liver Huh7 cells treated with miR-22 mimic
[4] = tested on: HDAC1, HDAC4, SIRT1, cyclin A2 (CCNA2); experiment: Western blot of protein deacetylases and cyclin A2 in HCT116 cells; format: cell-based; conditions: HCT116 cells, 48 hours after transfection, vs. scramble control
Method: HCT116 cells were transfected with either an miR-22 mimic or a scramble control, and 48 hours later the protein levels of HDAC4, SIRT1, and cyclin A2 were measured (FIG. 3B). The expression of all three proteins was reduced by treatment with the miR-22 mimic.
as §2

[5] = tested on: miR-22; conditions: published data; cited from earlier work
[6] = tested on: RARB and NUR77 genes; experiment: ChIP-qPCR: HDAC recruitment and H3K9 acetylation at RARB and NUR77 genes in HCT116 cells; format: cell-based; conditions: RA 10 μM, butyrate 5 mM, SAHA 5 μM
Method: Cell lysates were used for ChIP with antibodies specific for HDAC1, HDAC4, SIRT1, or acetylated H3K9, followed by qPCR using primers specific for the RARB and NUR77 genes. DMSO treated cells and IP using IgG were included as negative controls. […]inding was expressed relative to the IgG negative controls.
(§3) Chromatin immunoprecipitation (ChIP)-qPCR ChIP-qPCR was performed as described previously^21. Briefly, chromatin lysate was precleared before incubation with an anti-H3K9AC antibody (Millipore. Billerica, Mass.), anti-HDAC1 and anti-HDAC4 (Cell signaling technology, Beverly, Mass.) or anti-SIRT1 antibody (Santa Cruz Biotechnology, Santa Cruz, Calif.). IgG (Santa Cruz Biotechnology, Santa Cruz, Calif.) and RNA Polymerase II antibody (Millipore, Billerica, Mass.) were used as negative and positive controls, respectively. Samples were incubated with Dynase beads at 4° C. overnight followed by de-crosslinking and purification. DNA fragments generated served as templates for qPCR using Power SYBR1 Green PCR Master Mix.

[7] = tested on: HDAC1, HDAC4, SIRT1, cyclin A2 (CCNA2); experiment: Western blot of protein deacetylases and cyclin A2 in HCT116 cells; format: cell-based; conditions: 24 hours, RA 10 μM, butyrate 5 mM, SAHA 5 μM
[8] = tested on: NUR77; experiment: ChIP-qPCR and RT-PCR: NUR77 binding to BRE and CCND2 and their mRNA; format: cell-based; conditions: HCT116 cells
Method: as §1, §3

[9] = tested on: RARβ; experiment: ChIP-qPCR: RARβ binding to DR5 motif upstream of RARβ and CYP26A1 genes; format: cell-based; conditions: HCT116 cells
Method: as §1, §3

[10] = tested on: NUR77 and RARβ; experiment: Induction and localization of NUR77 and RARβ in HCT116 cells; format: cell-based; conditions: 48 hours, RA 10 μM, butyrate 5 mM, SAHA 5 μM, EGF 32 nM
Method: Proteins were immunoprecipitated by anti-NUR77 or anti-RARβ antibodies, or IgG, followed by Western blot using anti-RARβ or anti-NUR77 antibodies.
To study the effect of miR-22 in induction of cytosolic NUR77 by RA/butyrate, adenoviral-delivery of miR-22 inhibitors tagged with green fluorescence (adeno-miR-22 inhibitor-GFP, Applied Biological Materials Inc, Richond, BC) were used to infect HCT116 cells. At 48 hours post adenoviral infection, cells were treated with RA (10 μM) plus butyrate (5 mM) or DMSO for 24 hours. […] Cells were mounted in ProLong® Gold Antifade Reagent with DAPI (4′,6-diamidino-2-phenylindole, Life Technologies, Carlsbad, Calif.) and imaged under Keyence BZ-9000 microscope.

[11] = tested on: retinoic acid receptor beta (RARβ); experiment: RARB expression in HCT116 cells (qRT-PCR); format: cell-based; conditions: 24 hours, RA 10 μM, butyrate 5 mM, SAHA 5 μM
Method: (§4) Total RNA was extracted with TRIzol Reagent (Invitrogen, Carlsbad, Calif.), and cDNA was generated using High Capacity RNA-to-cDNA Kit (Applied Biosystems, Carlsbad, Calif.). qRT-PCR was performed on ABI 7900HT Fast Real time PCR system using Power SYBR® Green PCR Master Mix (Applied Biosystems, Carlsbad, Calif.).

[12] = tested on: HCT116 colon cancer cells; experiment: MTT cell viability assay in HCT116 cells; format: cell-based; conditions: RA 10 μM, butyrate 5 mM, SAHA 5 μM; for Cell viability: 48 hours, propionate 10 mM, valerate 10 mM, vs. DMSO
Method: Cell viability was monitored by MTT assay.
HCT116 cells (American Type Culture Collection) were maintained in McCoy's 5a medium from Gibco (Life Technologies, Carlsbad, Calif.) with 10% FBS. Cells were plated (1×10^6 cells per 60-mm dish, 2×10^5 cells per 6-well plates, and 1×10^5 cells per 24-well plates) overnight prior to treatment or transfection.
Cells were stained with 3-(4,5-dimethylthiazol-2-O-2,5-diphenyltetrazolium bromide (MTT, Sigma-Aldrich, St. Louis, Mo.) and measured at 570 nm with Microplate Reader (Biotek, Winooski, Vt.).

[13] = tested on: miR-22; experiment: miR-22 expression in HCT116 cells (qRT-PCR); format: cell-based; conditions: 24 hours, RA 10 μM, butyrate 5 mM, propionate 10 mM, valerate 10 mM, SAHA 5 μM
Method: To study the effect of RA and HDAC inhibitors on miR-22 expression, HCT116 cells were treated with RA, butyrate, propionate, valerate, and SAHA. The SCFA concentrations used were within physiologic ranges^35.
as §4

For “miR-22: microRNA, SEQ ID NO:1 AAGCUGCCAGUUGAAGAACUGU (listed as RNA, chemistry not fully specified)”, the “Acetylated NUR77 and RARβ” value [1] was “increased acetylated NUR77 and RARβ”, the “HDACs and CCNA2 protein levels in tumors” value [2] was “silenced HDACs and CCNA2” and the “NUR77 and RARβ protein levels in tumors” value [2] was “upregulating NUR77 and RARβ”. For the same compound, the “Colon tumor growth / tumor size” value ([2]; xenograft mice) was “inhibited colon cancer growth; also recorded: effective in inhibiting the growth of colon cancer; also recorded: remarkable effectiveness”, the “HDAC1, HDAC4, and SIRT1 levels” value [3] was “inhibited multiple HDACs” and the “Protein levels of HDAC1, HDAC4, SIRT1, cyclin A2 after miR-22 (mimic) transfection” value [4] was “inhibited multiple HDACs; also recorded: inhibits HDAC1, HDAC4 and SIRT1; also recorded: HDAC1 protein level was reduced; also recorded: reduced HDAC4 and SIRT1; also recorded: suppress HDAC4 and SIRT1 expression; also recorded: reduces protein deacetylases, including HDAC1”.

In the case of `C=C1CC[C@H](O)C/C1=C/C=C1\CCC[C@]2(C)[C@@H]([C@H](C)CCCC(C)C)CC[C@@H]12` [vitamin D3], the miR-22 induction [5] is given as “induce miR-22”.

In the case of `O=C(CCCCCCC(=O)Nc1ccccc1)NO` [SAHA, suberanilohydroxamic acid], the “H3K9 acetylation of NUR77 and RARβ genes (ChIP-qPCR)” value ([6]; 24 hours) is reported as “increased H3K9 acetylation”, the “Recruitment of HDAC1, HDAC4, and SIRT1 to the regulatory region of NUR77 and RARβ (ChIP-qPCR)” value ([6]; 24 hours) is reported as “decreased recruitment of HDAC1, HDAC4, and SIRT1” and the “Histone acetylation (H3K9Ac) in the gene encoding RARβ (ChIP-qPCR)” value [6] is reported as “increased histone acetylation”. For the same compound, the “Recruitment of HDAC4 and SIRT1 to the RARB gene (ChIP-qPCR)” value [6] was “reduced the recruitment of HDAC4 and SIRT1”, the “Acetylated NUR77 and RARβ” value [1] was “increased acetylated NUR77 and RARβ” and the “Protein levels of HDAC1, HDAC4, SIRT1, and cyclin A2 (CCNA2)” value [7] was “reduced HDAC1, HDAC4, SIRT1, and CCNA2 protein levels”. For the same compound, the “NUR77 binding to BRE and CCND2 promoter regions and their mRNA levels (NUR77 transcriptional activity)” value [8] was “reduced NUR77 binding”, the “Increase of RARβ binding to the DR5 motif upstream of RARβ and CYP26A1 genes” value [9] was 2.5 folds and the “Induction and localization of NUR77 and RARβ (immunostaining)” value [10] was “markedly induced NUR77 and RARβ”. The “RARB (RARβ) expression / transcription” value [11] was “upregulated”, the “Cell viability (MTT assay)” value ([12]; 24 hours) was “reduced cell viability” and the Cell viability [12] was “significantly reduced cell viability; also recorded: Markedly reduced cell viability”. For the same compound, the miR-22 expression level [13] was “upregulated; also recorded: could induce miR-22; also recorded: induced; also recorded: increased miR-22 level”.

For `CCC(=O)[O-].[Na+]` [propionate, sodium propionate], the Cell viability [12] was “Markedly reduced cell viability” and the miR-22 expression level [13] was “induced; also recorded: increased miR-22 level”.
